Test results from patent publication US20070213257A1, “COMPOSITIONS AND METHODS FOR COMPLEXES OF NUCLEIC ACIDS AND PEPTIDES” (Nastech Pharmaceutical Company Inc., priority 2005, published 2007).
Like-named read-outs stand apart in the source and are kept apart here.

Legend:
LC20 siRNA/PN73 complex = LC20 siRNA/PN73 complex (Homo sapiens, UniProt P62807)
Experimental: (§1) In this example, size exclusion chromatography (SEC) coupled with an ultraviolet detector (UV 260nm) and static laser light scattering (LS) detector was used to characterize the physical properties of the LC20 siRNA/PN73 peptide complex in the presence or absence of the organic salt. In addition, the phosphate/nitrogen (P/N) charge ratio for LC20 siRNA/PN73 was calculated.
LC20 siRNA/PN73 aggregation was characterized in the presence or absence of NMDG-glutamate by SEC-UV/LS.

PN73 = PN73 (Homo sapiens, UniProt P62807); test: SEC-UV/LS: effect of organic salt on PN73 aggregation; format: physicochemical; settings: 100 mM salt, without LC20 siRNA
PN73, sequence (P62807 13-48): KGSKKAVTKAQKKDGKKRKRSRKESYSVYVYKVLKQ
Experimental: as §1
PN73 in monomeric form is 4 kiloDaltons (kDA); however an intrinsic property of this peptide is to aggregate and form large complexes in solution. An initial study was performed to analyze the physical properties of PN73, without LC20 siRNA, in the presence and absence of 100 mM NMDG-glutamate salt or 9% sorbitol (no salt environment). […] In contrast, in the presence of 100 mM NMDG-glutamate salt, two distinct adjacent UV traces were observed indicating two distinct species of PN73 were present. […] Next, the ability of NMDG-glutamate and other organic salts to reduced PN73 aggregation in the presence of LC20 siRNA was characterized by SEC-UV/LS.

LC20 siRNA/PN73 complex, sequence (P62807 13-48 limits assumed, one chain of several): as the sequence (P62807 13-48) above

| Molecule | stabilization of LC20 siRNA/PN73 complex in solution (LC20 siRNA/PN73 complex; 1 mM salt) | stabilization of LC20 siRNA/PN73 complex in solution (LC20 siRNA/PN73 complex; 10 mM salt) | stabilization of LC20 siRNA/PN73 complex in solution (LC20 siRNA/PN73 complex; 100 mM salt) | stabilization of LC20 siRNA/PN73 complex in solution (LC20 siRNA/PN73 complex; 150 mM salt) | effect on PN73 aggregation (PN73) |
| --- | --- | --- | --- | --- | --- |
| trimethylethanolamine (Choline) [choline chloride] | may not be suitable as a stabilizer | may not be suitable as a stabilizer | may not be suitable as a stabilizer | – | – |
| NCCCNCCCCNCCCN [spermine acetate, spermine] | effective LC20 siRNA/PN73 stabilizer | effective LC20 siRNA/PN73 stabilizer | dissociates the LC20 siRNA/PN73 peptide complex | – | – |
| N=C(N)NCCC[C@H](N)C(=O)O [arginine glutamate, arginine] | effective stabilizer | effective stabilizer | effective stabilizer | not an effective stabilizer | – |
| CNC[C@H](O)[C@@H](O)[C@H](O)[C@H](O)CO.N[C@@H](CCC(=O)O)C(=O)O [NMDG-glutamate, N-methyl-D-glucamine (NMDG)] | effective stabilizer | effective stabilizer | effective stabilizer | – | reduces PN73 aggregation significantly |
